Experimental data published in patent US11033539B2, “Compounds of formulas (VII), (VIII), (IX), (XI), (XII), (XIII), and (XIV) as muscarinic receptor 4(M4) antagonists for treating neurological diseases” (Neurocrine Biosciences, Inc., priority 2015, dated 2021).
pKi: −log10 of the molar value.

Columns and labels:
human M3 receptor = human M3 receptor (Homo sapiens (Human), UniProt P20309); assay: Radioligand (tritiated N-methylscopolamine) binding assay, M3; conditions: CHO cell membranes expressing human M3; 1.5 nM tritiated N-methylscopolamine; 90 min, 37° C.; read-out: Ki against M3 receptor (Table 21, M3)
human M3 receptor, sequence (P20309 whole entry): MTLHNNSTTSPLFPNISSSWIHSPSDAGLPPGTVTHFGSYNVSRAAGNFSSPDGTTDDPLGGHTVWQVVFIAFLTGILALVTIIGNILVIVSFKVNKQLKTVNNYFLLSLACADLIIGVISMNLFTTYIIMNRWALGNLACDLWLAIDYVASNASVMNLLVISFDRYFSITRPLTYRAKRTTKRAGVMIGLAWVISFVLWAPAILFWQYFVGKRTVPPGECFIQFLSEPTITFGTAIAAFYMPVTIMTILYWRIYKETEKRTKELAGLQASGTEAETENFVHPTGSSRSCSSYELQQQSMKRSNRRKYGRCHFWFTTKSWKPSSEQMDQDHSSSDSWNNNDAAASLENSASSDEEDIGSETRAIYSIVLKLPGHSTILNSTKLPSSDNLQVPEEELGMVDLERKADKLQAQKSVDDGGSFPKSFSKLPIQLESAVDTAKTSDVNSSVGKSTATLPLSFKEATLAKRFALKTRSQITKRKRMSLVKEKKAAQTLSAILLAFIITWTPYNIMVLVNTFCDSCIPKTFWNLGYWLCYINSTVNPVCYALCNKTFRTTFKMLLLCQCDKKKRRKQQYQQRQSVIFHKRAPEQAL
Method: (§1) Binding affinity (Ki) of compounds was measured by inhibition of radioligand binding to membranes from CHO cells expressing human M1, M2, M3, M4 and M5 receptors. Membranes were prepared by nitrogen cavitation and differential centrifugation as previously described (Hoare et al., Mol. Pharmacol. 2003 March; 63(3): 751-65). The radioligand employed was tritiated N-methylscopolamine, used at a concentration of 1.5 nM. A dose-response of twelve concentrations of compound was used, ranging from 10 μM to […]. The assay buffer was 50 mM HEPES, 100 mM NaCl, 5 mM MgCl2, 1 mM ethylenediaminetetraacetic acid, pH-adjusted to pH 7.4. Membranes, radioligand and compound were incubated together for 90 minutes at 37° C., in a total volume of 150 μl in a 96-well plate. Receptor-bound radioligand was then collected by harvesting the assay over glass fiber filters pretreated with polyethylenimine to trap the cell membranes, using rapid vacuum filtration. Harvesting and radioactivity counting was conducted as previously described (see, e.g., Hoare et al., Mol. Pharmacol. 2003 63(3):751-65); Erratum at Mol. Pharmacol. 2005 July; 68(1): 260).

human M4 receptor = human M4 receptor (Homo sapiens (Human), UniProt P08173); assay: Radioligand (tritiated N-methylscopolamine) binding assay, M4; conditions: Ki against the M4 receptor; membranes from CHO cells expressing human M4; tritiated N-methylscopolamine 1.5 nM; read-out: Ki
human M4 receptor, sequence (P08173 whole entry): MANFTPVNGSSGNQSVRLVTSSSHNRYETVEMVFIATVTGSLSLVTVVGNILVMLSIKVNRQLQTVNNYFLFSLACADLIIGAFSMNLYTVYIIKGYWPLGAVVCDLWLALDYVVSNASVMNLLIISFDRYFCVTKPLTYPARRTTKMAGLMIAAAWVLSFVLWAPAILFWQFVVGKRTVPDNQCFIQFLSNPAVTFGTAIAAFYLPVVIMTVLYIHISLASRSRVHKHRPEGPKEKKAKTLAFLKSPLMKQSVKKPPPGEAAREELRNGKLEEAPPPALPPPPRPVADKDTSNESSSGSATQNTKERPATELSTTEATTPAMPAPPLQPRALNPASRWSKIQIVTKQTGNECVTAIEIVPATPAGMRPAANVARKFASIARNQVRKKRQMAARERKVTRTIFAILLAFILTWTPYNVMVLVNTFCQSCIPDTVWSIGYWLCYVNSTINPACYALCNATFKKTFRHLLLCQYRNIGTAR
Procedure, shortened: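 Ki from displacement of 1.5 nM [3H]N-methylscopolamine on membranes of CHO cells expressing each human receptor. Twelve compound concentrations (10 μM to […]), 90 min at 37° C in 50 mM HEPES, 100 mM NaCl, 5 mM MgCl2, 1 mM EDTA, pH 7.4. Bound ligand was captured by PEI-treated glass-fiber filtration and counted.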

human M1 receptor = human M1 receptor (Homo sapiens (Human), UniProt P11229); assay: Radioligand (tritiated N-methylscopolamine) binding assay, M1; conditions: CHO cell membranes expressing human M1; 1.5 nM tritiated N-methylscopolamine; 90 min, 37° C.; read-out: Ki against M1 receptor (Table 21, M1)
human M1 receptor, sequence (P11229 whole entry): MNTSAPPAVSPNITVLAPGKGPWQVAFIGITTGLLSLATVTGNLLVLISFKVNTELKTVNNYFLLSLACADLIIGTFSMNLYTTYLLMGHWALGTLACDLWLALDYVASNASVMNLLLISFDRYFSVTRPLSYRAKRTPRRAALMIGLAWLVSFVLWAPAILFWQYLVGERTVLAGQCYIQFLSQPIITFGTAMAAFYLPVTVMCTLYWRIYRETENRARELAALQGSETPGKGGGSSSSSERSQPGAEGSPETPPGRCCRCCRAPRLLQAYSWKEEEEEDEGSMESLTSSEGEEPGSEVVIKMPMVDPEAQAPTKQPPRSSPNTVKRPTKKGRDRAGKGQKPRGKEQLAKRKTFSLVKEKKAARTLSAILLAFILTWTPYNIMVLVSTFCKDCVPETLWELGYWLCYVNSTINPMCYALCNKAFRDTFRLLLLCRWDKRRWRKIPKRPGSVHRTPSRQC
Method: as §1

human M5 receptor = human M5 receptor (Homo sapiens (Human), UniProt P08912); assay: Radioligand (tritiated N-methylscopolamine) binding assay, M5; conditions: CHO cell membranes expressing human M5; 1.5 nM tritiated N-methylscopolamine; 90 min, 37° C.; read-out: Ki against M5 receptor (Table 21, M5)
human M5 receptor, sequence (P08912 whole entry): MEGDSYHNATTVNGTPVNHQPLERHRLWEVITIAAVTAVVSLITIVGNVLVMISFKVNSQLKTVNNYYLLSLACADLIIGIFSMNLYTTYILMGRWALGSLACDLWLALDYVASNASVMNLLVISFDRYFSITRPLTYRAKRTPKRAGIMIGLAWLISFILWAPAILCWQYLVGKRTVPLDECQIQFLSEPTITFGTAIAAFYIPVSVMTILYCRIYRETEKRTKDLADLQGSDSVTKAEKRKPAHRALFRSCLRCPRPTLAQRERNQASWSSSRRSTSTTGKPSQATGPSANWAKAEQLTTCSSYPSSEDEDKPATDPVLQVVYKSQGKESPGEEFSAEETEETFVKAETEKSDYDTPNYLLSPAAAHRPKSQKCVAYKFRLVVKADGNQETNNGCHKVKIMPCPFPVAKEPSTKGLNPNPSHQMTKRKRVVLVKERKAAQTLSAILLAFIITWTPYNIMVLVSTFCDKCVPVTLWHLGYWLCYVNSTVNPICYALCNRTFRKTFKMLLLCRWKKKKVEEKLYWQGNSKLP
Method: as §1

human M2 receptor = human M2 receptor (Homo sapiens (Human), UniProt P08172); assay: Radioligand (tritiated N-methylscopolamine) binding assay, M2; conditions: CHO cell membranes expressing human M2; 1.5 nM tritiated N-methylscopolamine; 90 min, 37° C.; read-out: Ki against M2 receptor (Table 21, M2)
human M2 receptor, sequence (P08172 whole entry): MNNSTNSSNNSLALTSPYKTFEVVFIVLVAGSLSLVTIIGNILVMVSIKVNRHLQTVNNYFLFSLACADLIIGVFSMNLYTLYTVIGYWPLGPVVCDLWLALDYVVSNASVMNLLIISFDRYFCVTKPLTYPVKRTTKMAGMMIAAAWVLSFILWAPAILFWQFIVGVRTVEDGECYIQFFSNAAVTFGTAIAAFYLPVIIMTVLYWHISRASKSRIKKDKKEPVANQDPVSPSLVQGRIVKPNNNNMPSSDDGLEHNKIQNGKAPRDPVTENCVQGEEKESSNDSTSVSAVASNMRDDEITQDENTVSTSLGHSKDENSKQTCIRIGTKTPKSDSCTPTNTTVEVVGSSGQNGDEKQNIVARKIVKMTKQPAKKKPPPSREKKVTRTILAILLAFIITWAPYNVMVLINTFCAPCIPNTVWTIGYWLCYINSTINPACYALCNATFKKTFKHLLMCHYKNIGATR
Method: as §1

Row | SMILES | pKi (human M3 receptor) | pKi (human M4 receptor) | pKi (human M1 receptor) | pKi (human M5 receptor) | pKi (human M2 receptor)
1 | C[C@@H]1CN(c2cccc(C#N)c2)CCN1C(=O)NCCC1CCN(Cc2ccccc2)CC1 [4-68, (2R)-N-[2-(1-benzylpiperidin-4-yl)ethyl]-4-(3-cyanophenyl)-2-methylpiperazine-1-carboxamide] | < 6.00 | > 8.00 | 6.00 to 7.00 | < 6.00 | 6.00 to 7.00
2 | C[C@@H]1CN(c2ccc(C#N)cn2)C[C@H](C)N1C(=O)NCCC1CCN(Cc2ccccc2)CC1 [3-23, (2S,6R)-N-[2-(1-benzylpiperidin-4-yl)ethyl]-4-(5-cyanopyridin-2-yl)-2,6-dimethylpiperazine-1-carboxamide] | < 6.00 | > 8.00 | < 6.00 | < 6.00 | 6.00 to 7.00
3 | N#Cc1cc(N2CCC(C(=O)NC[C@@H](O)C3CCN(Cc4ccccc4)CC3)CC2)ccc1F [10-58, N-[(2S)-2-(1-benzylpiperidin-4-yl)-2-hydroxyethyl]-1-(3-cyano-4-fluorophenyl)piperidine-4-carboxamide] | < 6.00 | > 8.00 | < 6.00 | < 6.00 | < 6.00
4 | C[C@@H]1CN(c2cc(F)c(F)c(Cl)c2)CCN1C(=O)NCCC1CCN(Cc2ccccc2)CC1 [4-52, (2R)-N-[2-(1-benzylpiperidin-4-yl)ethyl]-4-(3-chloro-4,5-difluorophenyl)-2-methylpiperazine-1-carboxamide] | 6.00 to 7.00 | > 8.00 | 6.00 to 7.00 | < 6.00 | 7.00 to 8.00
5 | C[C@@H]1CN(c2ccc(F)c(C#N)c2)CCN1C(=O)NCCC1CCN(Cc2ccccc2)CC1 [4-1, (2R)-N-[2-(1-benzylpiperidin-4-yl)ethyl]-4-(3-cyano-4-fluorophenyl)-2-methylpiperazine-1-carboxamide] | < 6.00 | > 8.00 | 6.00 to 7.00 | < 6.00 | 6.00 to 7.00
6 | C[C@@H]1CN(c2ncc(Cl)cn2)CCN1C(=O)NCCC1CCN(Cc2ccccc2)CC1 [5-22, (2R)-N-[2-(1-benzylpiperidin-4-yl)ethyl]-4-(5-chloropyrimidin-2-yl)-2-methylpiperazine-1-carboxamide] | < 6.00 | > 8.00 | 6.00 to 7.00 | < 6.00 | 7.00 to 8.00
7 | O=C(NCCC1CCN(Cc2ccccc2)CC1)C1CCN(c2ccc(OC(F)(F)F)cc2)CC1 [9-1, N-[2-(1-benzylpiperidin-4-yl)ethyl]-1-[4-(trifluoromethoxy)phenyl]piperidine-4-carboxamide] | < 6.00 | > 8.00 | < 6.00 | < 6.00 | 6.00 to 7.00
8 | C[C@@H]1CN(c2ccc(C#N)c(F)c2)CCN1C(=O)NCCC1CCN(Cc2ccccc2)CC1 [22-15] | < 6.00 | > 8.00 | 6.00 to 7.00 | 6.00 to 7.00 | 7.00 to 8.00
9 | C[C@@H]1CN(c2cnc(C#N)nc2)CCN1C(=O)NCCC1CCN(Cc2ccccc2)CC1 [4-80, (2R)-N-[2-(1-benzylpiperidin-4-yl)ethyl]-4-(2-cyanopyrimidin-5-yl)-2-methylpiperazine-1-carboxamide] | < 6.00 | > 8.00 | 6.00 to 7.00 | < 6.00 | 6.00 to 7.00
10 | O=C(NCCC1CCN(Cc2ccccc2)CC1CO)C1CCN(c2ccc(OC(F)(F)F)cc2)CC1 (stereo not shown) [9-62, N-{2-[1-benzyl-3-(hydroxymethyl)piperidin-4-yl]ethyl}-1-[4-(trifluoromethoxy)phenyl]piperidine-4-carboxamide] | < 6.00 | > 8.00 | 6.00 to 7.00 | < 6.00 | 6.00 to 7.00
11 | C[C@@H]1CN(c2cnc(Cl)c(F)c2)C[C@H](C)N1C(=O)NCCC1CCN(Cc2ccccc2)CC1 [22-8] | < 6.00 | > 8.00 | 6.00 to 7.00 | < 6.00 | 7.00 to 8.00
12 | C[C@@H]1CN(c2ccc(OC(F)(F)F)c(C#N)c2)CCN1C(=O)NC[C@H](O)C1CCN(Cc2ccccc2)CC1 [7-10, (2R)-N-[(2R)-2-(1-benzylpiperidin-4-yl)-2-hydroxyethyl]-4-[3-cyano-4-(trifluoromethoxy)phenyl]-2-methylpiperazine-1-carboxamide] | < 6.00 | > 8.00 | < 6.00 | < 6.00 | 6.00 to 7.00
13 | C[C@@H]1CN(c2cc(F)c(F)c(F)c2)CCN1C(=O)NCCC1CCN(Cc2cccs2)CC1 [6-26, (2R)-2-methyl-N-{2-[1-(thiophen-2-ylmethyl)piperidin-4-yl]ethyl}-4-(3,4,5-trifluorophenyl)piperazine-1-carboxamide] | < 6.00 | > 8.00 | 6.00 to 7.00 | < 6.00 | 7.00 to 8.00
14 | O=C(NCCC1CCN(Cc2ccccc2)CC1CO)N1CCN(c2cc(F)c(F)c(F)c2)CC1 (stereo not shown) [3-19, N-{2-[1-benzyl-3-(hydroxymethyl)piperidin-4-yl]ethyl}-4-(3,4,5-trifluorophenyl)piperazine-1-carboxamide] | < 6.00 | > 8.00 | < 6.00 | < 6.00 | 6.00 to 7.00
15 | O=C(NCCC1(CO)CCN(Cc2ccccc2)CC1)C1CCN(c2ccc(OC(F)(F)F)c(F)c2)CC1 [9-64, N-{2-[1-benzyl-4-(hydroxymethyl)piperidin-4-yl]ethyl}-1-[3-fluoro-4-(trifluoromethoxy)phenyl]piperidine-4-carboxamide] | < 6.00 | > 8.00 | 6.00 to 7.00 | < 6.00 | 6.00 to 7.00
16 | C[C@@H]1CN(c2ccc(F)c(F)c2)CCN1C(=O)NCCC1CCN(Cc2ccccc2)CC1 [4-15, (2R)-N-[2-(1-benzylpiperidin-4-yl)ethyl]-4-(3,4-difluorophenyl)-2-methylpiperazine-1-carboxamide] | < 6.00 | > 8.00 | 6.00 to 7.00 | < 6.00 | 6.00 to 7.00
17 | N#Cc1cc(F)cc(N2CCC(C(=O)NCCC3CCN(Cc4ccccc4)CC3)CC2)c1 [10-14, N-[2-(1-benzylpiperidin-4-yl)ethyl]-1-(3-cyano-5-fluorophenyl)piperidine-4-carboxamide] | < 6.00 | > 8.00 | < 6.00 | < 6.00 | 6.00 to 7.00
18 | C[C@@H]1CN(c2ncc(C#N)c(N)n2)CCN1C(=O)NCCC1CCN(Cc2ccccc2)CC1 [5-1, (2R)-4-(4-amino-5-cyanopyrimidin-2-yl)-N-[2-(1-benzylpiperidin-4-yl)ethyl]-2-methylpiperazine-1-carboxamide] | < 6.00 | > 8.00 | < 6.00 | < 6.00 | 6.00 to 7.00
19 | O=C(NCCC1CCN(Cc2ccccc2)CC1)N1CCN(c2ccc(C(F)(F)F)cc2)CC1 [4-76, N-[2-(1-benzylpiperidin-4-yl)ethyl]-4-[4-(trifluoromethyl)phenyl]piperazine-1-carboxamide] | < 6.00 | > 8.00 | < 6.00 | < 6.00 | 6.00 to 7.00
20 | C[C@@H]1CN(c2cc(F)c(OC(F)(F)F)c(F)c2)CCN1C(=O)NCCC1CCN(Cc2ccccc2)CC1 [4-60, (2R)-N-[2-(1-benzylpiperidin-4-yl)ethyl]-4-[3,5-difluoro-4-(trifluoromethoxy)phenyl]-2-methylpiperazine-1-carboxamide] | 6.00 to 7.00 | > 8.00 | 6.00 to 7.00 | 6.00 to 7.00 | 7.00 to 8.00
21 | Cc1c(C(=O)NCCC2CCN(Cc3ccccc3)CC2)cnc2cc(-c3cccc(OC(F)(F)F)c3)nn12 [18-16] | < 6.00 | > 8.00 | < 6.00 | < 6.00 | 6.00 to 7.00
22 | O=C(NCCC1CCN(Cc2ccccc2)CC1)c1ccc(-c2ccc(OC(F)(F)F)cc2)cc1F [9-6, N-[2-(1-benzylpiperidin-4-yl)ethyl]-2-fluoro-4-[4-(trifluoromethoxy)phenyl]benzamide] | 6.00 to 7.00 | > 8.00 | 6.00 to 7.00 | 6.00 to 7.00 | 7.00 to 8.00
23 | N#Cc1cc(OC(F)(F)F)cc(N2CCC(C(=O)NCCC3CCN(Cc4ccccc4)CC3)CC2)c1 [10-23, N-[2-(1-benzylpiperidin-4-yl)ethyl]-1-[3-cyano-5-(trifluoromethoxy)phenyl]piperidine-4-carboxamide] | < 6.00 | > 8.00 | 6.00 to 7.00 | < 6.00 | 7.00 to 8.00
